Laboratory results: patent publication US8067611B2, “Substituted 1-(thiazolyl)-and 1-(isothiazolyl)pyrazol-4-ylacetic acids, processes for their preparation and their use as herbicides and plant growth regulators” (Bayer CropScience AG, priority 2008, dated 2011)

Experiments:
Format in all cases: in vivo
Alopecurus myosuroides = assay: Pre-emergence herbicidal effect, greenhouse pot test; conditions: 1.0 kg or 0.32 kg of active substance per hectare, 100% = plants have died
Description: (§1) Seeds of monocotyledonous or dicotyledonous weed plants or crop plants are planted in wood-fiber pots in sandy loam and covered with soil. The compounds (I) according to the invention, formulated in the form of wettable powders (WP), are then applied as aqueous suspension or emulsion at a water application rate of 600 I/ha (converted) with the addition of 0.2% of wetting agent to the surface of the covering soil.
(§2) Following the treatment, the pots are placed in a greenhouse and kept under good growth conditions for the test plants. After about 3 weeks, the effect of the preparations is scored visually in comparison with untreated controls (herbicidal effect in percent (%): 100% effect=plants have died, 0% effect=as control plants).

Avena fatua = assay: as above; conditions: 1.0 kg or 0.32 kg of active substance per hectare, 100% = plants have died
Description: as §1, §2

Echinochloa crus galli = assay: as above; conditions: 1.0 kg or 0.32 kg of active substance per hectare, 100% = plants have died
Description: as §1, §2

Setaria viridis = assay: as above; conditions: 1.0 kg or 0.32 kg of active substance per hectare, 100% = plants have died
Description: as §1, §2

harmful plants = assay: as above; conditions: application rate of 1 kg or less of active substance per hectare, scored after about 3 weeks
Description: as §1, §2

[1] = tested on: weed-grasses and broad-leaved weeds; assay: Post-emergence herbicidal effect, greenhouse pot test; conditions: application rate of 1 kg and less of active substance per hectare, scored after 3 weeks
Experimental: Seeds of monocotyledonous or dicotyledonous weed plants or crop plants are planted in wood-fiber pots in sandy loam, covered with soil and grown in a greenhouse under good growth conditions. 2 to 3 weeks after sowing, the test plants are treated in the one-leaf stage. The compounds according to the invention, formulated in the form of wettable powders (WP), are then sprayed onto the green plant parts as aqueous suspension or emulsion at a water application rate of 600 I/ha (converted) with the addition of 0.2% of wetting agent. After 3 weeks' standing time of the test plants in the greenhouse under optimum growth conditions, the effect of the preparations is scored visually in comparison with untreated controls (herbicidal effect in percent (%): 100% effect=plants have died, 0% effect=as control plants).

| Structure (SMILES) | herbicidal activity (Alopecurus myosuroides) [%] | herbicidal activity (Avena fatua) [%] | herbicidal activity (Echinochloa crus galli) [%] | herbicidal activity (Setaria viridis) [%] | herbicidal pre-emergence activity against a number of harmful plants (harmful plants) | post-emergence activity against a broad spectrum of weed-grasses and broad-leaved weeds [1] |
| --- | --- | --- | --- | --- | --- | --- |
| COC(=O)Cc1c(C)nn(-c2cncs2)c1-c1cnc(C)cn1 [Compound 8-217] | ≥ 80 | ≥ 80 | ≥ 80 | ≥ 80 | good herbicidal pre-emergence activity | good post-emergence activity |
| COC(=O)Cc1c(C)nn(-c2cnsc2)c1-c1nc2ccccc2s1 [Compound 5-216] |  |  |  |  | good herbicidal pre-emergence activity | good post-emergence activity |
| COC(=O)Cc1c(C)nn(-c2cncs2)c1-c1ccc(-c2ccccc2)cc1 [Compound 8-276] |  |  |  |  | good herbicidal pre-emergence activity | good post-emergence activity |
| COC(=O)Cc1c(C)nn(-c2cnsc2)c1-c1ccc(Cl)cn1 [Compound 5-116] |  |  |  |  | good herbicidal pre-emergence activity | good post-emergence activity |
| COC(=O)Cc1c(C)nn(-c2cc(C)ns2)c1-c1ccc(Cl)cc1 [Compound 2-147, Methyl[5-(4-chlorophenyl)-3-methyl-1-(3-methylisothiazol-5-yl)-1H-pyrazol-4-yl]acetate] |  |  |  |  | good herbicidal pre-emergence activity | good post-emergence activity |
| COC(=O)Cc1c(C)nn(-c2cncs2)c1-c1cc(C)c(Cl)cn1 [Compound 8-294] |  |  |  |  | good herbicidal pre-emergence activity | good post-emergence activity |
